Laboratory results reported in US20060234909A1, “Compositions and methods for increasing drug efficiency” (priority 2003, published 2006).
Primed or numbered codes have the meaning given here. * marks the point of attachment. 3Am‑VBL = vinblastine (VBL) conjugate; PEG(11) = PEG(11) linker; PEG(29) = PEG(29) linker; 3Am = not defined here; Cbz = O=C(OCc1ccccc1)*; Piv = CC(C)(C)C(=O)*; VBL = vinblastine

Tests used:
MCF-7 breast carcinoma = test: Cytotoxicity assay (monolayer), MCF-7; type: cell-based; details: MCF7, ML (monolayer); read-out: MCF7 (EC50 Ave) ML;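 further: cells treated 72 h with 6-8 compound doses versus DMSO vehicle controls, EC50 fitted by 4-parameter dose-response curves, averaged across all tests and lots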
[1] = tested on: HT-29 colorectal carcinoma; test: Cytotoxicity assay (monolayer), HT-29; type: cell-based; details: HT29, ML (monolayer); read-out: HT29 (EC50 Ave) ML;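 further: monolayer cultures tested in triplicate, compound exposure for three days against DMSO vehicle controls, EC50 fitted from dose-response curves and averaged across all tests and lots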
HUVEC = test: Cytotoxicity assay (monolayer), HUVEC; type: cell-based; details: ML (monolayer), read-out: HUVEC (EC50 Ave) ML
[2] = tested on: Normal human foreskin fibroblasts (HFF); details: read-out: HFF (EC50 Ave) ML; HFF, ML (monolayer)
MCF-7 cells = details: read-out: MCF7 (EC50 Ave) SA; MCF7, SA (soft agar)
HT-29 cells = details: read-out: HT29 (EC50 Ave) SA; HT29, SA (soft agar)
tubulin = test: Fluorescence-based tubulin polymerization assay (MPA; enhancement for paclitaxel, inhibition for vinblastine); type: biochemical
Text: Drug-linker constructs may further be screened using functional assays predictive of biological activity. […] Tubulin assembly or inhibition thereof may be monitored by fluorescence using the CytoDYNAMIX Screen™ 10 kit available from Cytoskeleton (1830 S. Acoma St., Denver, Colo.). […] Emission is monitored at 405 nm with excitation at 360 nm. […] Tubulin assembly or inhibition may also be monitored by light scattering which is approximated by the apparent absorption at 350 nm. For paclitaxel drug conjugates BSA is employed to prevent aggregation and glycerol, which is a tubulin polymerization enhancer, is omitted from the kit to increase the signal to noise ratio.
The assay kit (#BK011) was purchased from Cytoskeleton (Denver, Colo.). The assays were carried out according to the manufacturer's instructions, except that 1 mg/ml BSA (Sigma #A3059) was included in all assays. […] Parent drugs and conjugates were tested at 0.75, 1.5, 3 and 10 micromolar final concentration and results represent a comparison of conjugate and parent drug curves obtained from the linear range of the dose responses.
(±SD) represent the average of all tests carried out for all lots of a given compound.

Human Src = molecular target: T1, Human Src (Homo sapiens, UniProt P12931); test: Src kinase assay (PKLight ATP utilization, substrate phosphorylation as % of parent peptide); type: biochemical
T1 construct: purchased Upstate (Charlottesville, Va.) 14-326
Protocol: Another test may involve monitoring the consumption of ATP. For example, ATP concentrations at time 0 or after 4 hour incubation may be monitored by luciferase reaction (PKLight kit obtained from Cambrex Corporation, One Meadowlands Plaza, East Rutherford, N.J. 07073), which generate a luminescence readout in the presence of ATP. Assays are initiated by mixing a kinase and a peptide in the presence of 40 μM ATP. After 4 hour of incubation at 30° C., PKLight reagent is added and mixed well, and luminescence readout measured. The rate of peptide phosphorylation is then directly related to the rate of decrease in the observed luminescence. Based on the first test, linkers of appropriate lengths and peptides with an effective amount of kinase activity which may be expected to be retained in the drug conjugate may be found.
Human Src (#14-326) and Akt (#14-276) kinases were purchased from Upstate (Charlottesville, Va.). Kinase reactions were carried out in 50 μl kinase reaction cocktail (25 mM Tris-HCl, pH 7.5, 5 μM β-glycerophosphate, 2 mM DTT, 0.1 mM Na3VO4, 10 mM MgCl2, 1 mg/ml BSA, […], 0.5 to 1.0 units enzyme). Substrates (peptide or drug-peptide conjugate in […]) were added (25, 50 and 100 μM) and the reaction was incubated for 2-5 hours at 30° C. PKLight reagent (23 μl) (Cambrex BioSciences, Rockland, Me.) was mixed with […] of the above kinase reaction and ATP utilization relative to no substrate and no ATP controls was determined by measuring luminescence with a SpectraMax Gemini EM plate reader (Molecular Devices, Sunnyvale, Calif.). Peptide substrates for Src and Akt have been described. For examples, see Lou et al. Letters in Peptide Science, 2, 289-296 (1995); Lou et al. Bioorganic & Medicinal Chemistry, 4, 677-682 (1996); Alessi et al. FEBS Letters, 399, 333-338 (1996). Substrate phosphorylation potential was determined from the linear portion of the substrate concentration dose response as a percentage of the activity observed with the parent peptide used for drug conjugation.

Row | Compound | EC50 (MCF-7 breast carcinoma) | EC50 [1] | EC50 (HUVEC) | EC50 [2] | EC50 (MCF-7 cells) | EC50 (HT-29 cells) | Ave. MPA Act. (tubulin) | Average src kinase activity (Human Src)
1 | CC(=O)O[C@@]12CO[C@@H]1C[C@H](O)[C@@]1(C)C(=O)[C@H](O)C3=C(C)[C@@H](OC(=O)[C@H](O)[C@@H](NC(=O)c4ccccc4)c4ccccc4)C[C@@](O)([C@@H](OC(=O)c4ccccc4)[C@H]21)C3(C)C [10 Deacetyl Taxol] | 20 to 100 nM | < 20 nM | < 20 nM | < 20 nM | < 20 nM | < 20 nM | – | –
2 | CC[C@]1(O)C[C@@H]2CN(CCc3c([nH]c4ccccc34)[C@@](C(=O)OC)(c3cc4c(cc3OC)N(C)[C@H]3[C@@](O)(C(=O)OC)[C@H](O)[C@]5(CC)C=CCN6CC[C@]43[C@@H]65)C2)C1 [Desacetyl vinblastine] | < 20 nM | < 20 nM | < 20 nM | < 20 nM | < 20 nM | < 20 nM | C (C>80) | –
3 | CBz-E(Bzl)YIFGSFK(BOC)-PEG(11)-3Am-VBL | < 20 nM | > 100 nM | > 100 nM | > 100 nM | – | – | A (A<50) | A (A<20)
4 | CBz-RPRTSSF-PEG(11)-3Am-VBL (N-CBz; PEG(11) linker; vinblastine conjugate) | < 20 nM | < 20 nM | – | – | 20 to 100 nM | – | – | –
5 | CBz-YIFGSFK-PEG(11)-3Am-VBL (N-CBz; PEG(11) linker; vinblastine conjugate) | > 100 nM | > 100 nM | > 100 nM | > 100 nM | – | – | B (B=50-80) | A (A<20)
6 | CBz-YIYGSFK(CBz)-PEG(11)-3Am-VBL (Cbz-YIYGSFK(Cbz)-{PEG(11)-3Am-VBL}; reading uncertain; also: printed as CBz-YIYGSFK(CBz)-PEG(11)-3Am-VBL) | 20 to 100 nM | > 100 nM | 20 to 100 nM | 20 to 100 nM | – | – | B (B=50-80) | A (A<20)
7 | CH3O(CH2CH2O)3CH2CH2(C═)YIYGSFH-PEG(11)-3Am-VBL (N-methoxy-PEG acyl; PEG(11); vinblastine conjugate) | > 100 nM | > 100 nM | > 100 nM | > 100 nM | – | – | B (B=50-80) | C (C>40)
8 | CH3O(CH2CH2O)3CH2CH2(C═O)YIYGSFS-PEG(11)-3Am-VBL (N-methoxy-PEG acyl; PEG(11); vinblastine conjugate) | > 100 nM | > 100 nM | > 100 nM | > 100 nM | – | – | C (C>80) | C (C>40)
9 | H-GIYWHHY-PEG(11)-3Am-VBL (H-GIYWHHY-{PEG(11)-3Am-VBL}; reading uncertain) | > 100 nM | > 100 nM | > 100 nM | > 100 nM | – | – | B (B=50-80) | B (B=20-40)
10 | H-YIYGSFK-PEG(11)-3Am-VBL (H-YIYGSFK-{PEG(11)-3Am-VBL}; reading uncertain) | > 100 nM | > 100 nM | > 100 nM | 20 to 100 nM | – | – | B (B=50-80) | C (C>40)
11 | H-YIYGSFK-PEG(29)-3Am-VBL x 2TFA (H-YIYGSFK-{PEG(29)-3Am-VBL}; reading uncertain; also: 2TFA salt) | < 20 nM | 20 to 100 nM | > 100 nM | 20 to 100 nM | – | – | A (A<50) | A (A<20)
12 | Pv-EYIYGSFR-PEG(11)-3Am-VBL (Piv-EYIYGSFR-{PEG(11)-3Am‑VBL}) | > 100 nM | > 100 nM | > 100 nM | > 100 nM | – | – | C (C>80) | C (C>40)
